Assay results: patent publication US20250248998A1, “LRRK2 Inhibitors” (Brenig Therapeutics, Inc., priority 2022, published 2025)
pIC50, pKi: −log10 of the molar value.

Assays:
LRRK2[G2019S] [1] = molecular target: T1, LRRK2[G2019S] (Homo sapiens, UniProt Q5S007, G2019S); experiment: Enzymatic activity inhibition against LRRK2[G2019S] (ADP-Glo kinase assay, LRRKtide substrate); assay type: biochemical; set-up: purchased SignalChem Biotech, Inc. L10-12GG-10; conditions: recombinant LRRK2[G2019S] 36 nM, ATP, 1 h at rt, average Ki
Protocol: Example A. Primary Assays Used to Determine Potency of the LRRK2 Inhibition
Assay for Determining Enzymatic Activity Inhibition Against LRRK2[G2019S].
Compound activity was determined using recombinant LRRK2[G2019S] protein (SignalChem Biotech, Inc., Cat #L10-12GG-10) and LRRKtide substrate (SignalChem Biotech, Inc., Cat #L10-58) in an in vitro enzymatic reaction. The enzymatic reaction was carried out in assay buffer (40 mM TRIS-HCl pH 7.4, 20 mM MgCl2, 0.05 mM DTT, 0.1 mg/mL BSA). The compounds were dispensed into a 384 well Diamond Well Plate (Axigen, Cat #P-384-120SQ-C-S) using the Biomek FX liquid handling system at the 80× solutions of compounds in DMSO. The 2× Protein-Substrate mix (final concentration 36 nM of LRRK2[G2019S] and 0.8 μg/μL of LRRKtide) was prepared in 1× Assay buffer and 4 μL of mixture per well was added into the 384-well white Reaction plate with NBS (Corning, Cat #CLS4513). The 4 μL of LRRKtide substrate w/o LRRK2[G2019S] in the 1× buffer was used for a negative control. Plates were centrifuged for 1 min at 200 g. Next the compounds were added to the reaction plate using Biomek station via following steps: 1 μL of 80× compounds (in DMSO) were mixed thoroughly with 39 μL of 2×10 μM ATP in Assay Buffer, then 4 μL of this mixture was added to Reaction plate with 4 μL of Protein-Substrate mix. Plates were centrifuged for 1 min at 200 g and incubated for 1 h at rt. Then, 4 μL per well of ADP-Glo reagent (Promega, ADP-Glo™ Kinase Assay, Cat #V9102) was added. Plates were incubated for 30 min at rt. Then, 8 μL per well of Kinase detection reagent (Promega, ADP-Glo™ Kinase Assay, Cat #V9102) was added and the luminescence signal was measured with a microplate reader. The luminescence signal was detected with CLARIOstar Plus (BMG LABTECH) microplate reader. The % inhibition was then used to calculate the Ki values. The average Ki values are shown in Table A, wherein “A” corresponds to Ki<5.0 nM, “B” corresponds to 5.0 nM≤Ki<10.0 nM, “C” 10.0 nM≤Ki<50.0 nM, “D” corresponds to 50.0 nM≤Ki<100.0 nM and “E” corresponds to Ki>100.0 nM.
Target sequence in this assay (Q5S007 970-2527 G2019S limits assumed): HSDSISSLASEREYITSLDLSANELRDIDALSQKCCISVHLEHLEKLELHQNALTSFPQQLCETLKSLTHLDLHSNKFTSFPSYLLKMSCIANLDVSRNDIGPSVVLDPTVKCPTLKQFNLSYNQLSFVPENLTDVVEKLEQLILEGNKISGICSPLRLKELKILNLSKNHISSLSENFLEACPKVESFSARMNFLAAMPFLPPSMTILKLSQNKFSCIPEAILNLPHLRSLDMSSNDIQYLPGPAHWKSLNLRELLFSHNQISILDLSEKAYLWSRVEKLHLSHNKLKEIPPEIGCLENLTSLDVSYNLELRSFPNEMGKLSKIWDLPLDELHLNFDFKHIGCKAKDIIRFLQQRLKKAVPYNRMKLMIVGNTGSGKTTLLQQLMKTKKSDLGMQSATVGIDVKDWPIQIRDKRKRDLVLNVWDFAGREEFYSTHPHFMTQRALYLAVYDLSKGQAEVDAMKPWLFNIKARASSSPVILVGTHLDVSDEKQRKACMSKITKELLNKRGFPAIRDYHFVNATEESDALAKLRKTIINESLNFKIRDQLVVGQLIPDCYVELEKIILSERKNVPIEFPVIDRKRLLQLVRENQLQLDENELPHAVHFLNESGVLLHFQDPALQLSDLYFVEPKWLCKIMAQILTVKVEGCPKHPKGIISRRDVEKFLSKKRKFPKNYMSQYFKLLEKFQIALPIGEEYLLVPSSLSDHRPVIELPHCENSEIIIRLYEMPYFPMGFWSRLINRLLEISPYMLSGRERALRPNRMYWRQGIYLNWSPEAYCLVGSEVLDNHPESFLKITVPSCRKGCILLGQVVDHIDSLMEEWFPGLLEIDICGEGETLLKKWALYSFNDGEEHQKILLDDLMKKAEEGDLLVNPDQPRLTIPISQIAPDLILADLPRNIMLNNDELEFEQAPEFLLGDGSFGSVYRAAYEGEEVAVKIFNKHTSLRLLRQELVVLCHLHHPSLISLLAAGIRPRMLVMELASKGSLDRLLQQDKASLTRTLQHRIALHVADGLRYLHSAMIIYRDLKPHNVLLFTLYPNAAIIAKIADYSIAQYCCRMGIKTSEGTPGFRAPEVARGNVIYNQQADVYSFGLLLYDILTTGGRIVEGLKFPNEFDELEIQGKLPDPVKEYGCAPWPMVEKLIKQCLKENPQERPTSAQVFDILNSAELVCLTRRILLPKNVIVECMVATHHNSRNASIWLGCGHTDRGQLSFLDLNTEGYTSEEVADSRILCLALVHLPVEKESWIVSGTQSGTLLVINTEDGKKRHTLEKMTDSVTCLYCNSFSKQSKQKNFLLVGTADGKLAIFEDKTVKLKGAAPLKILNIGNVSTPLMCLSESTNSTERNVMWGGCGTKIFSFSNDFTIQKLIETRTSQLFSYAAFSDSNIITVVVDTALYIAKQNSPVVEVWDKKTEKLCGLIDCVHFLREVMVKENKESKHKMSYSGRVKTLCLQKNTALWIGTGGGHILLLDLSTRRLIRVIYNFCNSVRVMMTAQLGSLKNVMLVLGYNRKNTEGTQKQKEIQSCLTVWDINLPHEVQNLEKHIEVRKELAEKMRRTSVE

LRRK2 WT [2] = molecular target: T2, LRRK2 WT (Homo sapiens, UniProt Q5S007); experiment: Enzymatic activity inhibition against LRRK2 WT (ADP-Glo kinase assay, LRRKtide substrate); assay type: biochemical; set-up: purchased SignalChem Biotech, Inc. L10-11G-10; conditions: recombinant LRRK2 WT 36 nM, ATP, 1 h at rt, average Ki
Protocol: Example B. Primary Assays Used to Determine Potency of the LRRK2 Inhibition
Assay for Determining Enzymatic Activity Inhibition Against LRRK2 WT.
Compound activity was determined using recombinant LRRK2 WT protein (SignalChem Biotech, Inc., Cat #L10-11G-10) and LRRKtide substrate (SignalChem Biotech, Inc., Cat #L10-58) in an in vitro enzymatic reaction. The enzymatic reaction was carried out in assay buffer (40 mM TRIS-HCl pH 7.4, 20 mM MgCl2, 0.05 mM DTT, 0.1 mg/mL BSA). The compounds were dispensed into a 384 well Diamond Well Plate (Axigen, Cat #P-384-120SQ-C-S) using the Biomek FX liquid handling system at 80× solutions of compounds in DMSO. The 2× Protein-Substrate mix (final concentration 36 nM of LRRK2 WT and 0.8 μg/μL of LRRKtide) was prepared in the 1× Assay buffer and 4 μL of mixture per well was added into the 384-well white Reaction plate with NBS (Corning, Cat #CLS4513). The 4 μL of LRRKtide substrate w/o LRRK2 WT in the 1× buffer was used for a negative control. Plates were centrifuged for 1 min at 200 g. Next the compounds were added to Reaction plate using Biomek station via following steps: 1 μL of 80× compounds (in DMSO) were mixed thoroughly with 39 μL of 2×10 μM ATP in Assay Buffer, then 4 μL of this mixture was added to Reaction plate with 4 μL of Protein-Substrate mix. Plates were centrifuged for 1 min at 200 g and incubated for 1 hour at rt. Then, 4 μL per well of ADP-Glo reagent (Promega, ADP-Glo™ Kinase Assay, Cat #V9102) was added. Plates were incubated for 30 minutes at rt. Then, 8 μL per well of Kinase detection reagent (Promega, ADP-Glo™ Kinase Assay, Cat #V9102) was added and the luminescence signal was measured with a microplate reader. The % inhibition was then used to calculate the Ki values. The average Ki values are shown in Table B, wherein “A” corresponds to Ki<10.0 nM, “B” corresponds to 10.0 nM K Ki<20.0 nM, “C” 20.0 nM K Ki<50.0 nM, “D” corresponds to 50.0 nM K Ki<100.0 nM and “E” corresponds to Ki>100.0 nM.
Target sequence in this assay (Q5S007 970-2527 limits assumed): as the sequence (Q5S007 970-2527 G2019S limits assumed) above, with S1050G counted along it

LRRK2[G2019S] [3] = molecular target: T1, LRRK2[G2019S]; experiment: Cell-based NanoBRET target engagement assay in HEK293 cells transfected with LRRK2 (G2019S)-NanoLuc fusion vector; set-up: expressed in transfected cells; host or cells: HEK293 (ATCC); conditions: compound treatment 1 h
Protocol: (§1) Example C. Cell-Based NanoBRET Target Engagement Assay in 11EK293 Cells Transiently Transfected with LRRK2 WT- or LRRK2 (G2019S)-Nano Luc Fusion Vector
(§2) H1EK293 (ATCC) cells were transfected with […] LRRK2 WT or LRRK2 (G2019S) and 9 μg transfection carrier DNA. The transfected cells were treated with the compounds (starting at 1 μM, 10-dose with 3-fold dilution) and reference compounds CEP-701 or Staurosporine (starting at 1 μM, 10-dose with 3-fold dilution); compound treatment time: 1 h. LRRK2 WT and LRRK2 (G2019S) target engagement was measured by NanoBRET assay. Curve fits were performed only when % NanoBret signal at the highest concentration of compounds was less than […]. Assay format: 384-well format, 4000 cells/well. The IC50 values are shown in Table C, wherein “A” corresponds to IC50≤50.0 nM, “B” corresponds to 50.0 nM≤IC50<100.0 nM, “C” corresponds to 100.0 nM≤IC50.
Target sequence in this assay (Q5S007 whole entry G2019S): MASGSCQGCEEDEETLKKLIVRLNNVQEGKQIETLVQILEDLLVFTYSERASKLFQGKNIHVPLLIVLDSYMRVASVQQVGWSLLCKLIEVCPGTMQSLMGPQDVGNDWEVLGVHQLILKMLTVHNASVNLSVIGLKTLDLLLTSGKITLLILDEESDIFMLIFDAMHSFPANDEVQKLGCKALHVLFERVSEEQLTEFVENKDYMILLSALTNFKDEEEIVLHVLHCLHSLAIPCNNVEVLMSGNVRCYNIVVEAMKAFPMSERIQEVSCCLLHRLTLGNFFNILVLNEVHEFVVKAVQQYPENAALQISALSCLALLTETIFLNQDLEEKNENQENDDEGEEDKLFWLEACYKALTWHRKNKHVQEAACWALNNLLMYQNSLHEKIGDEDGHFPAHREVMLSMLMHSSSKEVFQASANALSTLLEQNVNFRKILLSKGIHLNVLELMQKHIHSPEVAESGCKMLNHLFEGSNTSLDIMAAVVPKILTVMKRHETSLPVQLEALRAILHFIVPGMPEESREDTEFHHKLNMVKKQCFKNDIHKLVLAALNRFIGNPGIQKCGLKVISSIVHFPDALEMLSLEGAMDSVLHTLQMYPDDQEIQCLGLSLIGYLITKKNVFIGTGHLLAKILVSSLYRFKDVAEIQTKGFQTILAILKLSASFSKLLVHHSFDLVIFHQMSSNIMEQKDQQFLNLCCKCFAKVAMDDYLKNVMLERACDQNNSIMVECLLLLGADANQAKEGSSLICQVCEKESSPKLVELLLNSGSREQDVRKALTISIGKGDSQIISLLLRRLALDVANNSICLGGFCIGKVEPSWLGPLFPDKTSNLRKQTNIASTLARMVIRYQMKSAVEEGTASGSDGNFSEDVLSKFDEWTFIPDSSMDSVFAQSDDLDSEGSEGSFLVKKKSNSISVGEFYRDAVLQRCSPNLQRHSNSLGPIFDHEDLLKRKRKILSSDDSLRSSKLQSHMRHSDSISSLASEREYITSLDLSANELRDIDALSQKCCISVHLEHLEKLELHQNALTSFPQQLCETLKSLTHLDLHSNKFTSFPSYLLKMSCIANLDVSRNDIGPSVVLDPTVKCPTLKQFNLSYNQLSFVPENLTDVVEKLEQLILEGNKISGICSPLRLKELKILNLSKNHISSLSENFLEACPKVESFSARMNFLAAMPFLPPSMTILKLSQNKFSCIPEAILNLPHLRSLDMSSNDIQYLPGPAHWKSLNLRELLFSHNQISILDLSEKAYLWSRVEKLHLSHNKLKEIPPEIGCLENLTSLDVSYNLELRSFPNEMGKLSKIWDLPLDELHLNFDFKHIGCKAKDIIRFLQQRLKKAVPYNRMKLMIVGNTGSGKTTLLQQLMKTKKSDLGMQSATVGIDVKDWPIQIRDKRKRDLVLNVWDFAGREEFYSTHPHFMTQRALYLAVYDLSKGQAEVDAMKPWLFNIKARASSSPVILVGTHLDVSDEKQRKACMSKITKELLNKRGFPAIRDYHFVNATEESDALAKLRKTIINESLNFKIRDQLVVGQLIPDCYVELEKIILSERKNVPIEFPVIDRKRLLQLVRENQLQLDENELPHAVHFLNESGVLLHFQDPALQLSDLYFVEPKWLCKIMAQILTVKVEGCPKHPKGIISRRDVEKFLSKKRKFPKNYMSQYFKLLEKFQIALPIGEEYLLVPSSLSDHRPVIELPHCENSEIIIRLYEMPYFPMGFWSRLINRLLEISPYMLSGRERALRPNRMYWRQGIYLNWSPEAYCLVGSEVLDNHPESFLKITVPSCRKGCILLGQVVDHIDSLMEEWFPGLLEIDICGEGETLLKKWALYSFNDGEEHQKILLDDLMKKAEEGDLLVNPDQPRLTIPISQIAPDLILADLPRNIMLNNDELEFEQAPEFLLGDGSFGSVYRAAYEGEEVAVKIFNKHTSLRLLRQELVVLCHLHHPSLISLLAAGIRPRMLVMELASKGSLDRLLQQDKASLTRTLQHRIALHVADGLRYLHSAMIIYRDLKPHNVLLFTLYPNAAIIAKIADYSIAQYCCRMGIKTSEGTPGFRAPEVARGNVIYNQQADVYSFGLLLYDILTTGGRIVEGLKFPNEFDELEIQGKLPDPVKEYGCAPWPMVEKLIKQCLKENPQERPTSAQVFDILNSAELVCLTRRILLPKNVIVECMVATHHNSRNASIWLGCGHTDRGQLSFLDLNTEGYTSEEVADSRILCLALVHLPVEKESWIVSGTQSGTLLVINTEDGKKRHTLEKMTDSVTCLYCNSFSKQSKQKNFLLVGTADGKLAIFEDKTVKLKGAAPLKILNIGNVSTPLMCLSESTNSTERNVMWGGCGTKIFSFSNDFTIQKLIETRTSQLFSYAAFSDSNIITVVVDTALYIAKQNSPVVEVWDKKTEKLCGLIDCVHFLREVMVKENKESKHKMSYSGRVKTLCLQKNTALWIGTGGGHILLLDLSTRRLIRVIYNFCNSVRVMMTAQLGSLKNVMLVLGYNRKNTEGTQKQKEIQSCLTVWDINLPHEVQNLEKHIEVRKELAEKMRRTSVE

LRRK2 WT [4] = molecular target: T2, LRRK2 WT; experiment: Cell-based NanoBRET target engagement assay in HEK293 cells transfected with LRRK2 WT-NanoLuc fusion vector; set-up: expressed in transfected cells; host or cells: HEK293 (ATCC); conditions: compound treatment 1 h
Protocol: as §1, §2
Target sequence in this assay (Q5S007 whole entry): as the sequence (Q5S007 whole entry G2019S) above, with S2019G counted along it

Compound	pKi (LRRK2[G2019S] [1])	pKi (LRRK2 WT [2])	pIC50 (LRRK2[G2019S] [3])	pIC50 (LRRK2 WT [4])
CC(C)Oc1ccc2[nH]nc(-c3cnnc(N4CC(O)C4)c3)c2c1 [Compound 1, 1-[5-(5-isopropoxy-1H-indazol-3-yl)pyridazin-3-yl]azetidin-3-ol]	8.00 to 8.30	7.70 to 8.00	–	–
CC(C)Oc1ccc2[nH]nc(-c3cnnc(N4CCOCC4)c3)c2c1 [Compound 4, 4-[5-(5-isopropoxy-1H-indazol-3-yl)pyridazin-3-yl]morpholine]	≥ 8.30	≥ 8.00	≥ 7.30	7.00 to 7.30
CC(C)Oc1ccc2[nH]nc(-c3cnnc(N4CCCC4)c3)c2c1 [Compound 5, 5-isopropoxy-3-(6-pyrrolidin-1-ylpyridazin-4-yl)-1H-indazole]	≥ 8.30	7.70 to 8.00	–	–
Cc1nnc(-c2n[nH]c3ccc(OC(C)C)cc23)cc1N1CCOCC1 [Compound 10, 4-[6-(5-isopropoxy-1H-indazol-3-yl)-3-methyl-pyridazin-4-yl]morpholine]	7.30 to 8.00	≥ 8.00	–	–
CC(C)Oc1ccc2[nH]nc(-c3cnnc(N4CCOCC4)n3)c2c1 [Compound 13, 4-[5-(5-isopropoxy-1H-indazol-3-yl)-1,2,4-triazin-3-yl]morpholine]	8.00 to 8.30	≥ 8.00	–	–
CC(C)Oc1cccc2[nH]nc(-c3cc(N4CCOCC4)c(=O)n(C)n3)c12 [Compound 15, 6-(4-isopropoxy-1H-indazol-3-yl)-2-methyl-4-morpholino-pyridazin-3-one]	< 7.00	< 7.00	–	–
CC(C)Oc1ccc2[nH]nc(-c3cc(N4CCOCC4)c(=O)n(C4CCCC4)n3)c2c1 [Compound 16, 2-cyclopentyl-6-(5-isopropoxy-1H-indazol-3-yl)-4-morpholino-pyridazin-3-one]	8.00 to 8.30	≥ 8.00	≥ 7.30	7.00 to 7.30
Cn1nc(-c2n[nH]c3ccc(OC(F)(F)F)cc23)cc(N2CCOCC2)c1=O [Compound 22, 2-methyl-4-morpholino-6-[5-(trifluoromethoxy)-1H-indazol-3-yl]pyridazin-3-one]	< 7.00	< 7.00	–	–
Cc1c(OC(C)C)ccc2[nH]nc(-c3cc(N4CCOCC4)c(=O)n(C)n3)c12 [Compound 24, 6-(5-isopropoxy-4-methyl-1H-indazol-3-yl)-2-methyl-4-morpholino-pyridazin-3-one]	< 7.00	< 7.00	–	–
Cn1nc(-c2n[nH]c3ccc4c(c23)CCCO4)cc(N2CCOCC2)c1=O [Compound 29, 2-methyl-4-morpholino-6-(3,7,8,9-tetrahydropyrano[3,2-e]indazol-1-yl)pyridazin-3-one]	< 7.00	7.00 to 7.30	–	–
Cn1nc(-c2n[nH]c3cc4c(cc23)OCCC4)cc(N2CCOCC2)c1=O [Compound 31, 2-methyl-4-morpholino-6-(1,6,7,8-tetrahydropyrano[2,3-f]indazol-3-yl)pyridazin-3-one]	< 7.00	7.00 to 7.30	–	–
Cn1nc(-c2n[nH]c3ccc(OC(F)F)cc23)cc(N2CCOCC2)c1=O [Compound 32, 6-[5-(difluoromethoxy)-1H-indazol-3-yl]-2-methyl-4-morpholino-pyridazin-3-one]	7.00 to 7.30	< 7.00	–	–
Cn1nc(-c2n[nH]c3ccc(S(C)(=O)=O)cc23)cc(N2CCOCC2)c1=O [Compound 33, 2-methyl-6-(5-methylsulfonyl-1H-indazol-3-yl)-4-morpholino-pyridazin-3-one]	< 7.00	7.00 to 7.30	–	–

Further lines, results first:

pKi (LRRK2[G2019S] [1])	pKi (LRRK2 WT [2])	pIC50 (LRRK2[G2019S] [3])	pIC50 (LRRK2 WT [4])	Compound
< 7.00	< 7.00	–	–	O=S1(=O)CCCC1c1ccc2cnn(-c3cnnc(N4CCCC4)c3)c2c1 (stereo not shown) [Compound 34, 2-[1-(6-pyrrolidin-1-ylpyridazin-4-yl)indazol-6-yl]thiolane 1,1-dioxide]
7.00 to 7.30	7.30 to 7.70	–	–	CC(C)(C#N)c1ccc2cnn(-c3cnnc(N4CCCC4)c3)c2c1 [Compound 35, 2-methyl-2-[1-(6-pyrrolidin-1-ylpyridazin-4-yl)indazol-6-yl]propanenitrile]
< 7.00	7.00 to 7.30	–	–	N#CC1(c2ccc3cnn(-c4cnnc(N5CCCC5)c4)c3c2)CC1 [Compound 36, 1-[1-(6-pyrrolidin-1-ylpyridazin-4-yl)indazol-6-yl]cyclopropanecarbonitrile]
< 7.00	< 7.00	–	–	N#CC1(c2ccc3cnn(-c4cnnc(N5CCCC5)c4)c3c2)CCCCC1 [Compound 37, 1-[1-(6-pyrrolidin-1-ylpyridazin-4-yl)indazol-6-yl]cyclohexanecarbonitrile]
7.00 to 7.30	7.30 to 7.70	–	–	N#CC1(c2ccc3cnn(-c4cnnc(N5CCCC5)c4)c3c2)CCCC1 [Compound 39, 1-[1-(6-pyrrolidin-1-ylpyridazin-4-yl)indazol-6-yl]cyclopentanecarbonitrile]
7.00 to 7.30	≥ 8.00	–	–	Cn1nc(-n2ncc3ccc(C4(C#N)CC4)cc32)cc(N2CCOCC2)c1=O [Compound 41, 1-[1-(1-methyl-5-morpholino-6-oxo-pyridazin-3-yl)indazol-6-yl]cyclopropanecarbonitrile]
< 7.00	7.00 to 7.30	–	–	Cn1nc(-n2ncc3ccc(C(C)(C)C#N)cc32)cc(N2CCOCC2)c1=O [Compound 43, 2-methyl-2-[1-(1-methyl-5-morpholino-6-oxo-pyridazin-3-yl)indazol-6-yl]propanenitrile]
7.30 to 8.00	≥ 8.00	–	–	Cn1nc(-c2n[nH]c3ccc(-n4cccc4C#N)cc23)cc(N2CCOCC2)c1=O [Compound 45, 1-[3-(1-methyl-5-morpholino-6-oxo-pyridazin-3-yl)-1H-indazol-5-yl]pyrrole-2-carbonitrile]
